One series has as its system D425Med xenografts. As to the kind of experiment: Tumour growth inhibition in vivo, D425Med xenografts. Also noted: species or system mouse. An excerpt: (§1) All of the in vivo experiments were reviewed and approved by the relevant institutional animal welfare committees, and performed according to national law. Female athymic nude mice (CD1 nu/nu; Charles River, Margate, UK) used for anti-tumour studies were maintained and handled in isolators under specific pathogen-free conditions. […], […] and […] (1 × 10^7 exponentially growing cells per mouse, harvested and implanted in growth media) xenografts were established by sub-cutaneous implantation into CD-1 nude mice. […] Treatment was initiated when sufficient number of mice had established tumours to allow randomisation into treatment groups: day 17 for […], day 26 for […] and day 32 for […]. […] For drug combinations, AG-014699 was administered immediately after administering temozolomide. […] Tumour growth delay (TGD) is defined as the time to RTV4 in drug-treated mice compared with the time to RTV4 in control (vehicle alone) mice. Median tumour volume is shown, rather than the mean, as this is generally accepted as the most statistically reliable representation of the average growth rate of tumours in a small group of mice, if a normal distribution of tumour volumes cannot be assumed. Tumour growth delay was calculated as: median time to RTV4 in treated group-median time to RTV4 in control group.

Another series relates to D283Med xenografts. As to the kind of experiment: Tumour growth inhibition in vivo, D283Med xenografts. Also noted: species or system mouse.
Source text: as §1

The next series has as its target PARP-1 (Homo sapiens, UniProt P09874). As to the kind of experiment: PARP activity in D283Med xenograft homogenates after AG-014699 dosing. Format: in vivo, mouse. The procedure:
One or four daily doses of PARP inhibitor AG-014699 (1 mg kg^−1 intraperitoneally (i.p.)) were given to CD-1 nude mice bearing established D283Med xenografts. At 0.5, 2, 6 and 24 h after the initial or fourth daily dose of AG-014699, three animals per time point were bled by cardiac puncture under general anaesthesia, and then killed. Plasma was separated from the blood samples using standard methods and stored at −80°C. The brains and tumours were removed, snap frozen in liquid nitrogen and stored at −80°C before analysis. Blood, tumour and brain tissue were removed from three untreated control animals and processed in the same way.
PARP activity was determined in homogenates of subcutaneous D283Med xenografts and brain tissue (see above). Maximally stimulated PARP activity was measured in replicate samples (n⩾3) of a 1 : 1000 dilution of the homogenate as described for permeabilised D283Med cells (see above). Data were calculated as pmol PAR per mg protein by reference to the PAR standard curve and protein content of the sample and expressed as a percentage of the corresponding tissue from the saline-treated control animals. The mean PARP activity in xenograft and brain samples taken at each time point was expressed as a percentage of the mean PARP activity of control xenografts from untreated mice (n=3).

For another series, the system named is D425Med cells. Description: XTT growth inhibition, D425Med. Format: cell-based, human. The method, then:
Cell growth inhibition was estimated in exponentially growing D425Med, D283Med and D384Med cells in 96-well plates. Seeding densities of 1 × 10^3, 3 × 10^3 and 3 × 10^3 cells, respectively, ensured exponential growth for the duration of the experiment. At 24 h (D384Med) or 48 h (D283Med and D425Med) after seeding, cells were exposed to varying concentrations of temozolomide, as described in the Results, in the presence or absence of 0.4 μM AG-014699, a concentration previously shown to enhance temozolomide cytotoxicity in adult tumour cell lines ([Thomas et al, 2007]). After 3 days (D425Med and D384Med) or 5 days (D283Med) of culture (equivalent to approximately three cell divisions), the cell viability was quantified using an XTT cell proliferation kit assay (Roche, Mannheim, Germany), according to the manufacturer's instructions. Cell growth was expressed as a percentage in relation to DMSO or 0.4 μM AG-014699-alone controls. The concentration of temozolomide, alone or in combination with AG-014699, that inhibited growth by 50% (GI50) was calculated from computer-generated curves (GraphPad Software, San Diego, CA, USA). The potentiation factor50 (PF50) is defined as the ratio of […]. All data were from at least three independent experiments.

For a further series, the system named is D384Med xenografts. Description: Tumour growth inhibition in vivo, D384Med xenografts. Also noted: species or system mouse.
Source text: as §1

“Also recorded” adds a separate entry of the source.

PARP-1, sequence (P09874 whole entry): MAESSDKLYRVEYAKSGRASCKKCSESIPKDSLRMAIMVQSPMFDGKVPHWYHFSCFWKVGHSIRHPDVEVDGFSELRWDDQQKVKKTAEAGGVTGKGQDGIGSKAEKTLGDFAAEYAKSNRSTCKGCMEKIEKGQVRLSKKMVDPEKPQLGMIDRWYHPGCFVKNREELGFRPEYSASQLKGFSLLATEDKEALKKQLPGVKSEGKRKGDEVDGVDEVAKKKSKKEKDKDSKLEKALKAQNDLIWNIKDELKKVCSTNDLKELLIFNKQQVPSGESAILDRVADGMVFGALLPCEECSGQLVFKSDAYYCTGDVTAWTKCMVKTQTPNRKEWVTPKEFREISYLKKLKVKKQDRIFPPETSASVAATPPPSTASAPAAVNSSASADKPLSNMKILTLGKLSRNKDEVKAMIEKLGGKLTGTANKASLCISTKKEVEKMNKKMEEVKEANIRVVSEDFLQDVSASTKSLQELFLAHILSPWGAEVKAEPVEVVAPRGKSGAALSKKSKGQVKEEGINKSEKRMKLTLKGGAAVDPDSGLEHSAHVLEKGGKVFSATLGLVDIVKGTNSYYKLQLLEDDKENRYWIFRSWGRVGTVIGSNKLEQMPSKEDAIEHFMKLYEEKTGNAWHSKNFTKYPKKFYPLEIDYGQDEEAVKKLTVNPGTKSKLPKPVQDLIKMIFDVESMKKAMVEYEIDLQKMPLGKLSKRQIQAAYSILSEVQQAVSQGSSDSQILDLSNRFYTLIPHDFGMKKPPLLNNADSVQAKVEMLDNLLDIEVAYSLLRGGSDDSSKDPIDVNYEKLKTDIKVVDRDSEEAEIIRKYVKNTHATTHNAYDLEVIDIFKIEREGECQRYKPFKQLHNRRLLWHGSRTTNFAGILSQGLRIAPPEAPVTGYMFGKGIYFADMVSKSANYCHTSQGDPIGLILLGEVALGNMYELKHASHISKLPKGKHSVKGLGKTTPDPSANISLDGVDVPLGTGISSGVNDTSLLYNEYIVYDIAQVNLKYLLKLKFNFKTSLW

As to `CNCc1ccc(-c2[nH]c3cc(F)cc4c3c2CCNC4=O)cc1` [AG-014699], the “Median nadir body weight (% starting weight)” value in the series on D425Med xenografts (D425Med-bearing mice, daily x5, TMZ 68 mg kg−1 p.o., AG-014699 1 mg kg−1 i.p.) is 98 % starting weight; in the series with D283Med xenografts (D283Med-bearing mice, daily x5, TMZ 68 mg kg−1 p.o., AG-014699 1 mg kg−1 i.p.), 100 % starting weight; in the series with D384Med xenografts (D384Med-bearing mice, daily x5, TMZ 68 mg kg−1 p.o., AG-014699 1 mg kg−1 i.p.), 96 % starting weight. The “Median time to RTV4” value was 15.5 days with D425Med xenografts (D425Med, daily x5, TMZ 68 mg kg−1 p.o., AG-014699 1 mg kg−1 i.p.); 8 days in the series on D283Med xenografts (D283Med, daily x5, TMZ 68 mg kg−1 p.o., AG-014699 1 mg kg−1 i.p.); 20 days with D384Med xenografts (D384Med, daily x5, TMZ 68 mg kg−1 p.o., AG-014699 1 mg kg−1 i.p.). Moreover, the Complete regressions is on record as 0/5 with D425Med xenografts (D425Med, mice with regression/group, sustained for 100 days); 0/5 in the series with D283Med xenografts (D283Med, mice with regression/group); 0/5 in the series on D384Med xenografts (D384Med, mice with regression/group, transient). Also, the Tumour growth delay in the series on D283Med xenografts (D283Med, versus control time to RTV4) is on record as 1 days; in the series on D384Med xenografts (D384Med, versus control time to RTV4), 4 days. Further, the “Reduction of PARP activity in tumour (nadir)” value on PARP-1 (D283Med xenograft, 6 h post-injection, similar after first and fourth dose, 1 mg kg−1 i.p.) was “around 75%”. In addition, the “Reduction of PARP activity in xenograft tissue” value on PARP-1 (abstract, time not stated) is listed as ≥ 75%. Besides, the “Sensitisation to temozolomide by AG-014699” value in the series with D425Med cells (D425Med (MGMT-deficient), 0.4 μM AG-014699) was “not sensitised; also recorded: no sensitisation; also recorded: did not enhance temozolomide sensitivity”. For the same molecule, the “Growth inhibition by AG-014699 alone” value in the series on D425Med cells (D425Med, 0.4 μM, data not shown) is “not growth inhibitory”. In addition, in the series on D425Med cells (D425Med, potentiation of temozolomide by 0.4 μM AG-014699), the PF50 came out at 0.7±0.4.

For the origin of these results see paper PMC2990587, “Central nervous system penetration and enhancement of temozolomide activity in childhood medulloblastoma models by poly(ADP-ribose) polymerase inhibitor AG-014699” (British Journal of Cancer, 2010).
